{"source": "patent US20220334127A1", "about": "“IN VITRO METHOD FOR OBTAINING CLINICAL DATA IN PATIENTS SUFFERING FROM AN INFLAMMATORY DISEASE” (FUNDACIÓN PARA LA FORMACIÓN E INVESTIGACIÓN SANITARIAS DE …, priority 2019, published 2022)", "tested_on": "P2X7 receptor", "assay": "Mitochondrial membrane depolarization (JC-10) after P2X7 receptor stimulation with ATP in monocytes and macrophages", "assay_type": "cell-based, mouse", "settings": "ATP 3 mM", "text": "FIG. 5. P2X7 receptor induces mitochondrial membrane depolarization. (a) Mitochondrial membrane potential from blood monocytes stained with JC-10 in a control healthy donor (left), in a septic patient at day 1 (middle), and from healthy controls, abdominal surgery and septic patients at day 1 or 120 (right); PE^− cells represent the monocytes with mitochondrial depolarization. (b) Correlation between the percentage of monocytes with mitochondrial membrane depolarization and the quantification of P2X7 receptor MFI in monocytes from the septic patients; IC: immunocompromised septic patients. (c) Kinetics of mitochondrial depolarization after ATP (3 mM) stimulation of LPS-primed BMDMs incubated or not with the P2X7 receptor antagonist A438079 (10 μM). (d) Percentage of human monocytes from healthy donors with mitochondrial membrane depolarization after ATP (3 mM, 30 min) stimulation and incubated or not with the P2X7 receptor antagonist AZ11645373 (10 μM). […]\nMitochondrial membrane potential was measured using the JC-10 dye (Abcam) in BMDMs with a Sinergy Mx plate reader (BioTek) or by flow cytometry using the BD FACS Celesta flow cytometer (BD Biosciences), or in human monocytes (CD14^+ labelled with anti-CD14 APC-H7, clone MφP9, BD Biosciences) using FACS Canto (BD Biosciences), following the indications of manufacturer."}
{"smiles": "Nc1ncnc2c1ncn2[C@@H]1O[C@H](COP(=O)(O)OP(=O)(O)OP(=O)(O)O)[C@@H](O)[C@H]1O", "note": "[ATP, adenosine triphosphate]", "values": [{"measurement": "mitochondrial membrane depolarization by the agent itself", "result": "induced"}]}
